Reference: PMC5064002, “Sintokamide A Is a Novel Antagonist of Androgen Receptor That Uniquely Binds Activation Function-1 in Its Amino-terminal Domain” (The Journal of Biological Chemistry, 2016)

Assays:
[1] = target: T1, recombinant AR LBD (Rattus norvegicus, UniProt P15207); assay: Fluorescence polarization competition assay (Androgen Receptor Competitor Assay); type: binding; details: AR LBD 25 nM, 1 nM Fluormone AL Green; SINT1 and EPI-002 tested at 0.5–50 μM
T1 construct: purchased Invitrogen
T1 sequence (P15207 651-882 limits assumed): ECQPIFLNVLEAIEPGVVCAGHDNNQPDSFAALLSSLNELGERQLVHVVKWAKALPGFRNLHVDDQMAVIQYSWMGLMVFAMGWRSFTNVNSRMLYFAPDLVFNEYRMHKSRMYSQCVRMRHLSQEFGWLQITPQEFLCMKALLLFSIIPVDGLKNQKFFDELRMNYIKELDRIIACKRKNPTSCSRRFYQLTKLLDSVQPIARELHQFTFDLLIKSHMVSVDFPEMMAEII
Description: The Androgen Receptor Competitor Assay (Green) kit (Invitrogen) was used. […] The reactions with serial dilutions of test compounds were completed in 40-μl aliquots in triplicates. Displacement of Fluormone AL Green from AR LBD by the test compounds was measured by the change in fluorescence polarization using Infinite® M1000 (Tecan) with excitation at 470 nm and emission at 535 nm.
To determine whether the mechanism of action of SINT1 to inhibit androgen-induced AR transcriptional activity was mediated by binding to AR LBD, a fluorescence polarization competition assay was used. This assay uses recombinant AR LBD to reveal whether a test compound competes for ligand binding of Fluoromone that binds to this domain.

[2] = target: T2, AR interaction with STAT3 (Homo sapiens, UniProt P10275, T878A); assay: Co-immunoprecipitation of AR with STAT3 in LNCaP cells; type: cell-based; details: EPI-002 35 μM or SINT1 20 μM, 50 ng/ml IL-6 6 h
T2 construct: endogenous in cells; host or cells: LNCaP
T2 sequence (P10275 1-920 T878A): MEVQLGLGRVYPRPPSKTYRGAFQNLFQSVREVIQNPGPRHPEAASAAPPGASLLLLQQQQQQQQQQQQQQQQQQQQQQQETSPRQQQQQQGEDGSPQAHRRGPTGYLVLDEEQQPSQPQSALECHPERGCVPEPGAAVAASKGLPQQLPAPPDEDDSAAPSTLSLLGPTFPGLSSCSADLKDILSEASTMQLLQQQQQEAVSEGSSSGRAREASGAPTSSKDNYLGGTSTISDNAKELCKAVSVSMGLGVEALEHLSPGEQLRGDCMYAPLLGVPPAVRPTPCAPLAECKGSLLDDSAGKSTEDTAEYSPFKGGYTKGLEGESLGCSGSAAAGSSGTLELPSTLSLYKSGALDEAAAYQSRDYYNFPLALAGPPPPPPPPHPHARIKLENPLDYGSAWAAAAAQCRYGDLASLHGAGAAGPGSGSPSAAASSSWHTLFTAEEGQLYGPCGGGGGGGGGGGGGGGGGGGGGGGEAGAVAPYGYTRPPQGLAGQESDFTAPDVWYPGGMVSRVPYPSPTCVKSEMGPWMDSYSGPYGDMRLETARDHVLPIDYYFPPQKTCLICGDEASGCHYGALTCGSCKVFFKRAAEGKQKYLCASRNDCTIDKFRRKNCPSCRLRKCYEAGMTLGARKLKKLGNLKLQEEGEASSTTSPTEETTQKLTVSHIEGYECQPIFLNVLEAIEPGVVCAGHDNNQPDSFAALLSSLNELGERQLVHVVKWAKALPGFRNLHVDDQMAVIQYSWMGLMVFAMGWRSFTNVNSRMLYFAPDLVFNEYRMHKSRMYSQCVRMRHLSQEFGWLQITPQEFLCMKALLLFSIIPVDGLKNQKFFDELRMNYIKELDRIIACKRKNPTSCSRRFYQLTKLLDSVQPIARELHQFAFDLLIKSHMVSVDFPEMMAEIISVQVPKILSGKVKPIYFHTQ
Description: LNCaP cells were preincubated with EPI-002 (35 μM), SINT1 (20 μM), or DMSO (vehicle control) for 1 h before treatment for 6 h with 50 ng/ml IL-6. Whole cell lysates were prepared from harvested cells in modified radioimmune precipitation assay buffer. Cell lysates were precleared with 2 μg of normal mouse IgG and 20 μl of Protein A/G PLUS-agarose beads (Santa Cruz Biotechnology) to remove nonspecific bead binding. Total STAT3 was immunoprecipitated with 10 μg of antibody against STAT3 (124H6) or 10 μg of normal mouse IgG as a negative control followed by probing the immunoblot with anti-AR antibody (AR-N20; 1:1000) and anti-STAT3 antibody (124H6; 1:1000) and normalizing to levels of β-actin (1:10,000) as loading controls. The input lanes were loaded with 5 μg of the starting cell lysate. The relative density of AR for each immunoprecipitated sample was quantified by ImageJ software and normalized to levels of STAT3 pulled down.

[3] = system: LNCaP95 cells; assay: Cell proliferation (BrdU incorporation), LNCaP95; type: cell-based; details: 48 h
Description: Cells were pulse-labeled with 10 μM BrdU for 2 h. Cells were fixed, and BrdU-labeled cells were identified with anti-BrdU-peroxidase (Roche Applied Science). BrdU incorporation was measured at 570 nm using a VersaMax ELISA microplate reader (Molecular Devices). At least three independent experiments with six technical replicates were analyzed, and average values are indicated.

[4] = system: LNCaP95 xenografts; assay: LNCaP95 xenografts in castrated mice; type: in vivo, NOD-SCID mice
Description: At 48 h, total RNA was isolated using a PureLink RNA Mini kit (Invitrogen). For in vivo expression, tumors were harvested 3 days after last treatment, and RNA was extracted using TRIzol. Prior to cDNA generation, 4 μg of RNA were DNase-treated using DNase I (amplification grade; Sigma-Aldrich). DNase-treated RNA was split into two tubes (+RT and −RT), and cDNA was generated using the High Capacity RNA-cDNA kit (Applied Biosystems). Once complete, both reactions were adjusted to 5 ng/μl and stored at −20 °C. Approximately 5 ng of diluted cDNA and gene-specific primers were mixed with Platinum SYBR Green qPCR SuperMix-UDG with ROX (Invitrogen). The transcripts were measured using an ABI PRISM 7900 Sequence Detection System (Invitrogen). For all quantitative RT-PCR experiments, each sample was tested in triplicate, and gene expression levels were normalized to the reference gene RPL13A. Neuron-specific enolase (ENO2) (Gene ID, 2026; pair 1) and synaptophysin (SYP) (Gene ID, 6855; pair 2) human primers were from Sigma Life Science. All other primers were described previously ([4], [9]) and purchased from Integrated DNA Technologies.
Male NOD-SCID mice bearing subcutaneous LNCaP or LNCaP95 tumors were castrated when the tumor volume reached ∼100 mm^3. Seven days after castration, animals were injected intratumorally with 30 mg/kg of body weight SINT1 or a matching volume of vehicle (DMSO) every 3 days for a total of 15 days. Animal behavior and body weight were observed throughout the study period for signs of toxicity. Tumor volumes were calculated by the formula length × width × height × 0.5236. Tumors were excised 3 days after the last injection and prepared for immunohistochemistry or gene expression.

Row | SMILES | competition with Fluoromone for binding to AR LBD [1] | interaction between AR and STAT3 [2] | proliferation of LNCaP95 cells [3] | growth of LNCaP95 tumors ([4]; castrated mice, 30 mg/kg intratumorally every 3 days) | levels of expression of ENO2 and SYP genes (neuroendocrine differentiation) ([4]; harvested LNCaP95 xenografts) | levels of FL-AR and AR-V7 transcripts in harvested LNCaP95 xenografts ([4]; tumors harvested 3 days after last treatment)
1 | CCC(=O)NC(CC(C)C(Cl)(Cl)Cl)C(=O)N1C(=O)C=C(OC)C1CC(C)C(Cl)Cl (stereo not drawn) [SINT1, Sintokamide A] | did not compete | did not | inhibited | significantly reduce the growth | no significant changes | not significantly altered
2 | CC(C)(c1ccc(OC[C@H](O)CO)cc1)c1ccc(OC[C@H](O)CCl)cc1 [EPI-002, reference compound] | did not compete | inhibited interaction | inhibited | – | – | –
